Results as given in paper PMC6271520, “Isolation and Characterization of an α-Glucosidase Inhibitor from Musa spp. (Baxijiao) Flowers” (Molecules, 2014).
Read-outs that look alike come from different tables or passages of the source.

Key:
[1] = target: T1, α-Glucosidase from Bacillus stearothermophilus (Geobacillus stearothermophilus, UniProt A0ACH1E9U3); experiment: α-glucosidase inhibitory activity assay (pNPG substrate, PNP release at 405 nm); type: biochemical; conditions: for IC50: pH 6.8, 37 °C, 2.5 mmol/L pNPG
Protocol: Louis, MO, USA). […] All the reagents were of analytical grade. […] Then 0.5 mL of 2.5 mmol/L p-nitrophenyl-α-D-glucopyranoside as the substrate was added to the mixture to start the reaction. The reaction was incubated at 37 °C for 15 min and stopped by adding 1 mL 0.2 mol/L sodium carbonate solution. The α-glucosidase activity was determined by measuring the release of PNP at 405 nm. For the inhibitory activity assay, crude ethanol extracts were dissolved in 50% aqueous dimethyl sulfoxide, while the chloroform, ethyl acetate, and n-butanol fractions and puriﬁed compounds were dissolved in dimethyl sulfoxide. […] The inhibition of the test sample on α-glucosidase was calculated as follows: […] where Acontrol: Absorbance for 100% enzyme activity (+enzyme), Asample: Test sample (+enzyme + inhibitor) and Abackground: Inhibitor background absorbance (−enzyme + inhibitor).

α-glucosidase [2] = target: α-glucosidase; set-up: method as in PMID 17270224; conditions: vanillic acid from stem bark of Fagara tessmannii; cited from earlier work
α-glucosidase [3] = target: α-glucosidase; set-up: method as in doi:10.1016/j.phytol.2013.08.005; conditions: β-sitosterol isolated from Chrozophora plicata; cited from earlier work
[4] = target: T1, α-Glucosidase from Bacillus stearothermophilus; experiment: Lineweaver–Burk plot analysis of inhibition kinetics of α-glucosidase; type: biochemical; conditions: for mode of inhibition: Lineweaver–Burk plot, varying pNPG; for Ki: from Vmax at 12.5 and 50.0 mg/L (compound 5), 400 and 800 mg/L (compounds 3 and 4)
Protocol: The mechanism of the binding of compounds 3, 4 and 5 to α-glucosidase was further studied.
The Ki value was calculated using the values of Vmax obtained at 12.5 and 50.0 mg/L for compound 5 and the values of Vmax obtained at 400 and 800 mg/L for compounds 3 and 4, respectively.
To determine the kinetic mode of inhibition of isolated α-glucosidase inhibitors, Lineweaver–Burk plot analysis was performed. This kinetics study was carried out in the presence and absence of inhibitors with varying concentrations of 4-NPGP as the substrate. The mode of inhibition of the test compounds was assessed on the basis of the inhibitory effects on Km (dissociation constant) and Vmax (maximum reaction velocity) of the enzyme determined using a Lineweaver-Burk plot, which is the double reciprocal plot of the enzyme reaction velocity (V) versus the substrate (p-nitrophenyl β-D-glucopyranoside, pNPG) concentration (1/V versus 1/[pNPG]).

[5] = read-out: IC50 (mg/L) (converted)

T1 sequence (A0ACH1E9U3 entry or part of it): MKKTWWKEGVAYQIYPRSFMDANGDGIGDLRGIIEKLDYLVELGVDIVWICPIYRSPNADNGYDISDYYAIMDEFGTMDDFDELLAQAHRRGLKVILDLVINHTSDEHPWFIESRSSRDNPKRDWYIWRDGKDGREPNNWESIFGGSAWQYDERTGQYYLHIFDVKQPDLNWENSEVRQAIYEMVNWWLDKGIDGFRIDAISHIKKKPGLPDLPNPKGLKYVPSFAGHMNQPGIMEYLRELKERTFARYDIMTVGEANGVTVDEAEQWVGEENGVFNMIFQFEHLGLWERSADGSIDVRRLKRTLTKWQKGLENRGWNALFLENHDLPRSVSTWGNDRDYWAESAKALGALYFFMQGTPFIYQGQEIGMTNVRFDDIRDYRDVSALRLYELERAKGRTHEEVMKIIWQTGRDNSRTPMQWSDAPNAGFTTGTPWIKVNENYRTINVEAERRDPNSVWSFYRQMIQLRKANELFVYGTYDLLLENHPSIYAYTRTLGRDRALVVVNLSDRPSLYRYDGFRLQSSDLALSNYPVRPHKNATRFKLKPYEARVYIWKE

Row | Structure (SMILES) | IC50 ([1]; read-out: IC50 (mg/L)) | IC50 [1, 5] | mode of inhibition [4] | further results
1 | COc1cc(/C=C/C(=O)O)ccc1O [Compound 2, Ferulic acid] | 6480 µM |  |  | 
2 | COc1cc(C(=O)O)ccc1O [Compound 1, Vanillic acid] | 11900 µM |  |  | IC50 (α-glucosidase [2]): 69.4 ± 0.8 µM
3 | C[C@H]1O[C@H](O[C@H]2[C@H](O)[C@@H](O)[C@@H](O[C@H]3[C@H](O)[C@@H](O)C(O)O[C@@H]3CO)O[C@@H]2CO)[C@H](O)[C@@H](O)[C@@H]1N[C@H]1C=C(CO)[C@@H](O)[C@H](O)[C@H]1O (stereo partly drawn) [Acarbose, reference compound] |  | 1550 µM |  | inhibition at 1500 µg/mL ([1]; at 1.5 mg/mL, read-out: percent inhibition against α-glucosidase): 56.4%
4 | CC[C@H](CC[C@@H](C)[C@H]1CC[C@H]2[C@@H]3CC=C4C[C@@H](O)CC[C@]4(C)[C@H]3CC[C@]12C)C(C)C [Compound 3, β-Sitosterol] | 684 µM |  | competitive inhibitors | IC50 (α-glucosidase [3]): 287.1 ± 0.75 µM; Ki ([4]; read-out: inhibition constant (Ki)): 48.4 µM
5 | CC[C@H](CC[C@@H](C)[C@H]1CC[C@H]2[C@@H]3CC=C4C[C@@H](O[C@@H]5O[C@H](CO)[C@@H](O)[C@H](O)[C@H]5O)CC[C@]4(C)[C@H]3CC[C@]12C)C(C)C [Compound 4, Daucosterol] |  | 429 µM | competitive inhibitors | Ki ([4]; read-out: inhibition constant (Ki) (converted)): 4.06 µM
